Reference: patent US10988507B2, “Immunomodulators” (Bristol-Myers Squibb Company, priority 2016, dated 2021)
pIC50: −log10 of the molar value. Where a SMILES comes first, the peptide text is derived from it. Bridges are numbered along the chain shown (N, C = ends). [ ]: non-standard residue; d: D form. The star is where a group is joined. Palmitoyl = CCCCCCCCCCCCCCCC(=O)*; Hyp = O=C(O)[C@@H]1C[C@@H](O)CN1; Myristoyl = CCCCCCCCCCCCCC(=O)*; NMeNle = CCCC[C@H](NC)C(=O)O; NMeA = CN[C@@H](C)C(=O)O

What was measured:
[1] = biological target: PD-1-Ig binding to PD-L1-TVMV-His (PD-L1-His) (Homo sapiens (Human), UniProt Q9NZQ7); assay: PD-1/PD-L1 Homogenous Time-Resolved Fluorescence (HTRF) binding assay; conditions: PD-1-Ig (20 nM)/PD-L1-His (10 nM) binding assay
Text: The ability of the macrocyclic peptides of the present disclosure to bind to PD-L1 was investigated using a PD-1/PD-L1 Homogenous Time-Resolved Fluorescence (HTRF) binding assay.
Homogenous Time-Resolved Fluorescence (HTRF) Assays of Binding of Soluble PD-1 to Soluble PD-L1. Soluble PD-1 and soluble PD-L1 refers to proteins with carboxyl-end truncations that remove the transmembrane-spanning regions and are fused to heterologous sequences, specifically the Fc portion of the human immunoglobuling G sequence (Ig) or the hexahistidine epitope tag (His). All binding studies were performed in an HTRF assay buffer consisting of dPBS supplemented with 0.1% (w/v) bovine serum albumin and 0.05% (v/v) Tween-20. For the PD-1-Ig/PD-L1-His binding assay, inhibitors were pre-incubated with PD-L1-His (10 nM final) for 15 m in 4 μl of assay buffer, followed by addition of PD-1-Ig (20 nM final) in 1 μl of assay buffer and further incubation for 15 m. PD-L1 fusion proteins from either human, cynomologous macaques, mouse, or other species were used. HTRF detection was achieved using europium crypate-labeled anti-Ig monoclonal antibody (1 nM final) and allophycocyanin (APC) labeled anti-His monoclonal antibody (20 nM final). Antibodies were diluted in HTRF detection buffer and 5 μl was dispensed on top of binding reaction. […]

[2] = oral administration, extensive first-pass metabolism in the liver; cited from earlier work

Chain of PD-1-Ig binding to PD-L1-TVMV-His (PD-L1-His) (Q9NZQ7 other isoform, or with tags, fused parts or gaps): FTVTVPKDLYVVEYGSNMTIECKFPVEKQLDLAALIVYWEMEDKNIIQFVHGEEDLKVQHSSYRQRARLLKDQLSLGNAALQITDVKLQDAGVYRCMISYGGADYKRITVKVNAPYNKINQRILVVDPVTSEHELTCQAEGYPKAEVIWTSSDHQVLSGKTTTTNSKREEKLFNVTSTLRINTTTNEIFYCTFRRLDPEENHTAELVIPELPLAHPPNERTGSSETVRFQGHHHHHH

pIC50 [1] | SMILES | bioavailability [2]
5.71 | CCCCCCCCCCCCCCCC(=O)NCCCC[C@@H]1NC(=O)[C@H](CCCC)N(C)C(=O)[C@H](CCCC)N(C)C(=O)[C@H](Cc2c[nH]c3ccccc23)NC(=O)[C@H](CO)NC(=O)[C@H](Cc2c[nH]c3ccccc23)NC(=O)[C@@H]2C[C@@H](O)CN2C(=O)[C@H](CC(C)C)NC(=O)[C@H](Cc2cnc[nH]2)NC(=O)[C@@H]2CCCN2C(=O)[C@H](CC(=O)O)NC(=O)[C@H](C)N(C)C(=O)[C@H](Cc2ccc(O)cc2)NC(=O)CSC[C@@H](C(=O)NCC(N)=O)NC1=O [Example 11058] ({CH2CO}-Y[NMeA]DPHL[Hyp]WSW[NMeNle][NMeNle]K(Palmitoyl)CG-NH2; thioether N-14) | –
6.16 | CCCCCCCCCCCCCC(=O)NCCCC[C@@H]1NC(=O)[C@H](CCCC)N(C)C(=O)[C@H](CCCC)N(C)C(=O)[C@H](Cc2c[nH]c3ccccc23)NC(=O)[C@H](CO)NC(=O)[C@H](Cc2c[nH]c3ccccc23)NC(=O)[C@@H]2C[C@@H](O)CN2C(=O)[C@H](CC(C)C)NC(=O)[C@H](Cc2cnc[nH]2)NC(=O)[C@@H]2CCCN2C(=O)[C@H](CC(=O)O)NC(=O)[C@H](C)N(C)C(=O)[C@H](Cc2ccc(O)cc2)NC(=O)CSC[C@@H](C(=O)NCC(N)=O)NC1=O [Example 11059] ({CH2CO}-Y[NMeA]DPHL[Hyp]WSW[NMeNle][NMeNle]K(Myristoyl)CG-NH2; thioether N-14) | –
– | CCCC1O[C@@H]2C[C@H]3[C@@H]4CCC5=CC(=O)C=C[C@]5(C)[C@H]4[C@@H](O)C[C@]3(C)[C@]2(C(=O)CO)O1 (stereo partly drawn) [budesonide] | about 10%
